The results in this text go back to patent US11957759B1, “Rapidly accelerated fibrosarcoma (RAF) degrading compounds and associated methods of use” (Arvinas Operations, Inc., priority 2022, dated 2024).

What is called DC50 is the concentration at which degradation of the target reaches its halfway point. Low readings indicate degradation at low concentration, high ones degradation only at high concentration. As usually defined, the Dmax is the largest share of the target that was removed.

One assay deals with T1, B-RAF G466V (Homo sapiens, UniProt P15056, G466V).
T1 construct: expressed in transfected cells; host or cells: T-Rex 293 cells (Invitrogen #R71007)
In words: Target protein degradation, assay D: T-Rex 293 cells, HA-BRAF_G466V, 384 well format. The assay is classed as cell-based. Particulars: T-Rex 293 HA-BRAF_G466V cells, 24 hours, Examples 83-269; for DC50: Assay D; for Dmax: T-REx-293, Assay D. The method in brief: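 Degradation measured by high-content imaging of anti-HA immunofluorescence in fixed T-Rex 293 cells carrying inducible HA-BRAF G466V (1 ng/mL doxycycline), after 24 h PROTAC exposure at 37 °C over 300 nM–5 pM (1:3, 11 points, 0.5% DMSO). Outputs DC50 and Dmax as % of control; nuclei counts against DMSO wells gauge toxicity.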

Another assay addresses T2, B-RAF V600E (Homo sapiens, UniProt P15056, V600E).
T2 construct: expressed in transfected cells; host or cells: T-Rex 293 cells (Invitrogen #R71007)
As to the kind of experiment: Target protein degradation, assay C: T-Rex 293 cells, HA-BRAF_V600E, 384 well format. It counts as cell-based. Particulars: T-Rex 293 HA-BRAF_V600E cells, 24 hours, Examples 83-269; for DC50: Assay C; for Dmax: T-REx-293, Assay C. The method in brief: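 After 24 h exposure to an 11-point 1:3 series (300 nM–5 pM, 0.5% DMSO), fixed T-Rex 293 cells carrying HA-BRAF V600E (induced with 1 ng/mL doxycycline) were stained anti-HA and imaged. DC50 and Dmax were derived from BRAF intensity relative to control, and cytotoxicity from nuclear counts.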

A value given as a limit tells only on which side of the number the result lay.

T1 sequence (P15056 whole entry G466V): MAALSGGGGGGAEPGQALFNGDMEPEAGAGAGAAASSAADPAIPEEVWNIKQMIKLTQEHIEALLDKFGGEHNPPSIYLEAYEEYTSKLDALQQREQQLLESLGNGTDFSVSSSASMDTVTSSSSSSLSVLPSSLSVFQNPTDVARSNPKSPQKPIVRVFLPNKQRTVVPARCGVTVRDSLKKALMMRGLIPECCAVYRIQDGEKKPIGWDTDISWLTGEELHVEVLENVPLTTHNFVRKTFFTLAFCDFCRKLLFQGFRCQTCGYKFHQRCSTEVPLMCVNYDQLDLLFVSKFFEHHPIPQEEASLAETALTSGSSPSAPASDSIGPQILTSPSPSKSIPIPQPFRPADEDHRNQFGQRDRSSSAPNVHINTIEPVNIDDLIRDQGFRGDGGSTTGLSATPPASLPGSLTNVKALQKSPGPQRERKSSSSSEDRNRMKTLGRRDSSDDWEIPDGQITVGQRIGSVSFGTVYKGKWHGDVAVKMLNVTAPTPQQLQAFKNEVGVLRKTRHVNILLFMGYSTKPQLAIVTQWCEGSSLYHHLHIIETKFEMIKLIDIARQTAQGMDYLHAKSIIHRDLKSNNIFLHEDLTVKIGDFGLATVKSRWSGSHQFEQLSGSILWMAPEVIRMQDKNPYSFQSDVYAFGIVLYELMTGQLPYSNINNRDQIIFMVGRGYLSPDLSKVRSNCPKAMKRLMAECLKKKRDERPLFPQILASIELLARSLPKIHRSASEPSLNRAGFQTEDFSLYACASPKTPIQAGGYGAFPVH
T2 sequence (P15056 whole entry V600E): as the sequence (P15056 whole entry G466V) above, with V466G, V600E counted along it

With `CN(c1ccc2c(c1)CN([C@H]1CCC(=O)NC1=O)C2=O)[C@H]1CC[C@@H](N2CCN(c3ccc(-n4cnc5ccc(Oc6c(F)ccc(NS(=O)(=O)N7CC[C@@H](F)C7)c6C#N)cc5c4=O)cc3)CC2)CC1` [Example 230, (3R)-N-(2-cyano-4-fluoro-3-{[4-oxo-3-(4-(4-[(1r,4r)-4-({2-[(3S)-2,6-dioxopiperidin-3-yl]-1-oxo-2,3-dihydro-1H-isoindol-5-yl}(methyl)amino)cyclohexyl]piperazin-1-yl}phenyl)-3,4-dihydroquinazolin-6-yl]oxy}phenyl)-3-fluoropyrrolidine-1-sulfonamide], at B-RAF G466V, the DC50 lay within 1 to 10 nM and the greatest degradation seen (Dmax) was in the range of 35 to 70%. For the same compound, at B-RAF V600E, the 50% degradation concentration (DC50) is 50 to 500 nM and the maximal degradation (Dmax) was 35 to 70%.

Take `N#Cc1c(NS(=O)(=O)N2CC[C@@H](F)C2)ccc(F)c1Oc1ccc2ncn(-c3cccc(C4CCN(CC5CCN(c6ccc7c(c6)CN([C@H]6CCC(=O)NC6=O)C7=O)CC5)CC4)c3)c(=O)c2c1` [Example 240, (3R)-N-(2-cyano-3-{[3-(3-{1-[(1-{2-[(3S)-2,6-dioxopiperidin-3-yl]-1-oxo-2,3-dihydro-1H-isoindol-5-yl}piperidin-4-yl)methyl]piperidin-4-yl}phenyl)-4-oxo-3,4-dihydroquinazolin-6-yl]oxy}-4-fluorophenyl)-3-fluoropyrrolidine-1-sulfonamide]: on B-RAF G466V, the 50% degradation concentration (DC50) lay in the range of 1 to 10 nM and the Dmax is ≥ 70%. On B-RAF V600E, the half-maximal degradation concentration (DC50) lay in the range of 5 to 50 nM and the maximal degradation (Dmax) is ≥ 70%.

Consider `N#Cc1c(NS(=O)(=O)N2CC[C@@H](F)C2)ccc(F)c1Oc1ccc2ncn(-c3ccc(N4CCN(CC5CCN(c6ccc(C7CCC(=O)NC7=O)cn6)CC5)CC4)cc3)c(=O)c2c1` (stereo partly drawn) [Example 91, (3R)-N-{2-cyano-3-[(3-(4-[4-({1-[5-(2,6-dioxopiperidin-3-yl)pyridin-2-yl]piperidin-4-yl}methyl)piperazin-1-yl]phenyl}-4-oxo-3,4-dihydroquinazolin-6-yl)oxy]-4-fluorophenyl}-3-fluoropyrrolidine-1-sulfonamide], for which the half-maximal degradation concentration (DC50) on B-RAF G466V fell in the range of 1 to 10 nM; at B-RAF V600E, 5 to 50 nM. Moreover, the Dmax on B-RAF G466V is ≤ 35%; on B-RAF V600E it was 35 to 70%.

On to `N#Cc1c(NS(=O)(=O)N2CC[C@@H](F)C2)ccc(F)c1Oc1ccc2ncn(-c3ccc(N4CCC(CN5CCC6(CC5)CN(c5cccc7c5CN(C5CCC(=O)NC5=O)C7=O)C6)CC4)nc3)c(=O)c2c1` (stereo partly drawn) [Example 169, (3R)-N-{2-cyano-3-[(3-{6-[4-({2-[2-(2,6-dioxopiperidin-3-yl)-1-oxo-2,3-dihydro-1H-isoindol-4-yl]-2,7-diazaspiro[3.5]nonan-7-yl}methyl)piperidin-1-yl]pyridin-3-yl}-4-oxo-3,4-dihydroquinazolin-6-yl)oxy]-4-fluorophenyl}-3-fluoropyrrolidine-1-sulfonamide], for which, at B-RAF G466V, the 50% degradation concentration (DC50) lay within 1 to 10 nM and the greatest degradation seen (Dmax) was ≤ 35%. At B-RAF V600E, this compound had a DC50 of 50 to 500 nM and a Dmax of 35 to 70%.

As to `N#Cc1c(NS(=O)(=O)N2CC[C@@H](F)C2)ccc(F)c1Oc1ccc2ncn(-c3ccc(N4CCC(CN5CC(c6ccc7c(c6)CN([C@@H]6CCC(=O)NC6=O)C7=O)C5)CC4)cc3)c(=O)c2c1` [Example 216], on B-RAF G466V, the DC50 was in the range of 1 to 10 nM and the Dmax was ≤ 35%. At B-RAF V600E, this compound showed a DC50 of 50 to 500 nM and a Dmax of 35 to 70%.

As for `C[C@H]1CN(CC2CCN(c3ccc4c(c3F)CN([C@@H]3CCC(=O)NC3=O)C4=O)CC2)CCN1c1ccc(-n2cnc3ccc(Oc4c(F)ccc(NS(=O)(=O)N5CC[C@@H](F)C5)c4C#N)cc3c2=O)nc1` [Example 214, (3R)-N-{2-cyano-3-[(3-{5-[(2S)-4-[(1-{2-[(3R)-2,6-dioxopiperidin-3-yl]-4-fluoro-1-oxo-2,3-dihydro-1H-isoindol-5-yl}piperidin-4-yl)methyl]-2-methylpiperazin-1-yl]pyridin-2-yl}-4-oxo-3,4-dihydroquinazolin-6-yl)oxy]-4-fluorophenyl}-3-fluoropyrrolidine-1-sulfonamide], at B-RAF G466V, the DC50 was 10 to 30 nM and the maximal degradation (Dmax) was ≤ 35%. Moreover, the DC50 at B-RAF V600E was > 500 nM.

In the case of `N#Cc1c(NS(=O)(=O)N2CC[C@@H](F)C2)ccc(F)c1Oc1ccc2ncn(-c3ccn(C4CCN(CC5CCN(c6ccc7c(c6)CN([C@H]6CCC(=O)NC6=O)C7=O)CC5)CC4)n3)c(=O)c2c1` [Example 248, (3R)—N-(2-cyano-3-{[3-(1-{1-[(1-{2-[(3S)-2,6-dioxopiperidin-3-yl]-1-oxo-2,3-dihydro-1H-isoindol-5-yl}piperidin-4-yl)methyl]piperidin-4-yl}-1H-pyrazol-3-yl)-4-oxo-3,4-dihydroquinazolin-6-yl]oxy}-4-fluorophenyl)-3-fluoropyrrolidine-1-sulfonamide], on B-RAF G466V, the DC50 was 1 to 10 nM and the greatest degradation seen (Dmax) is ≥ 70%. In addition, at B-RAF V600E, the DC50 was in the range of 50 to 500 nM and the greatest degradation seen (Dmax) was ≥ 70%.

For `Cn1c(=O)n(C2CCC(=O)NC2=O)c2cccc(N3CC(CN4CCN(c5ccc(-n6cnc7ccc(Oc8c(F)ccc(NS(=O)(=O)N9CC[C@@H](F)C9)c8C#N)cc7c6=O)cc5)CC4)C3)c21` (stereo partly drawn) [Example 218, (3R)-N-{2-cyano-3-[(3-{4-[4-({1-[1-(2,6-dioxopiperidin-3-yl)-3-methyl-2-oxo-2,3-dihydro-1H-1,3-benzodiazol-4-yl]azetidin-3-yl}methyl)piperazin-1-yl]phenyl}-4-oxo-3,4-dihydroquinazolin-6-yl)oxy]-4-fluorophenyl}-3-fluoropyrrolidine-1-sulfonamide], the figures for the DC50 on B-RAF G466V and at B-RAF V600E were 1 to 10 nM and 50 to 500 nM, respectively. In addition, the Dmax on B-RAF G466V and on B-RAF V600E was 35 to 70% each time.

Consider `N#Cc1c(NS(=O)(=O)N2CC[C@@H](F)C2)ccc(F)c1Oc1ccc2ncn(-c3ccc(N4CCC(CN5CC6(CCN(c7ccc8c(c7)CN([C@H]7CCC(=O)NC7=O)C8=O)CC6)C5)CC4)cc3)c(=O)c2c1` [Example 238, (3R)-N-(2-cyano-3-{[3-(4-{4-[(7-{2-[(3S)-2,6-dioxopiperidin-3-yl]-1-oxo-2,3-dihydro-1H-isoindol-5-yl}-2,7-diazaspiro[3.5]nonan-2-yl)methyl]piperidin-1-yl}phenyl)-4-oxo-3,4-dihydroquinazolin-6-yl]oxy}-4-fluorophenyl)-3-fluoropyrrolidine-1-sulfonamide], for which, on B-RAF G466V, the 50% degradation concentration (DC50) was in the range of 1 to 10 nM and the greatest degradation seen (Dmax) is ≥ 70%. In addition, at B-RAF V600E, the half-maximal degradation concentration (DC50) was 50 to 500 nM and the Dmax was ≥ 70%.

Take `CN(c1ccc2c(c1)CN([C@H]1CCC(=O)NC1=O)C2=O)[C@H]1CC[C@H](N2CCN(c3ccc(-n4cnc5ccc(Oc6c(F)ccc(NS(=O)(=O)N7CC[C@@H](F)C7)c6C#N)cc5c4=O)cc3)CC2)CC1` [Example 231, (3R)-N-(2-cyano-4-fluoro-3-{[4-oxo-3-(4-(4-[(1s,4s)-4-({2-[(3S)-2,6-dioxopiperidin-3-yl]-1-oxo-2,3-dihydro-1H-isoindol-5-yl}(methyl)amino)cyclohexyl]piperazin-1-yl}phenyl)-3,4-dihydroquinazolin-6-yl]oxy}phenyl)-3-fluoropyrrolidine-1-sulfonamide]: on B-RAF G466V, the 50% degradation concentration (DC50) is 1 to 10 nM and the maximal degradation (Dmax) fell in the range of 35 to 70%. At B-RAF V600E, the DC50 lay in the range of 50 to 500 nM and the Dmax fell in the range of 35 to 70%.
